From article doi:10.1101/2024.08.19.608619, “Discovery of potent SARS-CoV-2 nsp3 macrodomain inhibitors uncovers lack of translation to cellular antiviral response” (bioRxiv, 2024)
Like-named read-outs stand apart in the source and are kept apart here.

Assays:
SARS-CoV-2 nsp3-mac1 [1] = target: T1, SARS-CoV-2 nsp3-mac1 (Severe acute respiratory syndrome coronavirus 2, UniProt P0DTD1); assay: biochemical; parameters: SARS-CoV-2 nsp3 macrodomain TR-FRET single point, per cent inhibition, n=2
SARS-CoV-2 nsp3-mac1 [2] = target: T1, SARS-CoV-2 nsp3-mac1; assay: biochemical; type: biochemical; conditions: SARS-CoV-2 nsp3 macrodomain TR-FRET single point, concentration 50.0 uM

Cc1nc(NC(=O)[C@@H]2CCCOC2)c2ccnc-2[nH]1 [ASAP-0000078]
inhibition at 50 µM (SARS-CoV-2 nsp3-mac1 [1]; read-out: perc_inhibition_mean, batch_name=ASAP-0000078-001): -3.2%
perc_inhibition_mean (SARS-CoV-2 nsp3-mac1 [2]): -3.202%

O=C(Nc1cnc2[nH]ncc2c1)c1cc(C2CC2)[nH]c1C1CC1 [ASAP-0000079]
inhibition at 50 µM (SARS-CoV-2 nsp3-mac1 [1]; read-out: perc_inhibition_mean, batch_name=ASAP-0000079-001): -23.6%
perc_inhibition_mean (SARS-CoV-2 nsp3-mac1 [2]): -23.613%

O[C@H]1C[C@](CNc2ncnc3[nH]ccc23)(c2ccccc2)C1 [ASAP-0000080]
inhibition at 50 µM (SARS-CoV-2 nsp3-mac1 [1]; read-out: perc_inhibition_mean, batch_name=ASAP-0000080-001): 11.4%
perc_inhibition_mean (SARS-CoV-2 nsp3-mac1 [2]): 11.369%

Cc1[nH]c2ncnc(NC(=O)CCc3ccccc3)c2c1C [ASAP-0000081]
inhibition at 50 µM (SARS-CoV-2 nsp3-mac1 [1]; read-out: perc_inhibition_mean, batch_name=ASAP-0000081-001): 5.02%
perc_inhibition_mean (SARS-CoV-2 nsp3-mac1 [2]): 5.021%

CCC[C@@](C)(NC(=O)c1ncnc2[nH]ccc12)C(=O)OC [ASAP-0000082]
inhibition at 50 µM (SARS-CoV-2 nsp3-mac1 [1]; read-out: perc_inhibition_mean, batch_name=ASAP-0000082-001): -6.62%
perc_inhibition_mean (SARS-CoV-2 nsp3-mac1 [2]): -6.621%

Oc1ccccc1CNc1ncnc2[nH]cnc12 [ASAP-0000083]
inhibition at 50 µM (SARS-CoV-2 nsp3-mac1 [1]; read-out: perc_inhibition_mean, batch_name=ASAP-0000083-001): 1.9%
perc_inhibition_mean (SARS-CoV-2 nsp3-mac1 [2]): 1.904%

Cc1nn(Cc2ccccc2)c(C)c1CNc1ncnc2[nH]ncc12 [ASAP-0000084]
inhibition at 50 µM (SARS-CoV-2 nsp3-mac1 [1]; read-out: perc_inhibition_mean, batch_name=ASAP-0000084-001): -1.75%
perc_inhibition_mean (SARS-CoV-2 nsp3-mac1 [2]): -1.755%

c1ccc2sc([C@@H]3CCCN(c4ncnc5[nH]ccc45)C3)nc2c1 [ASAP-0000085]
inhibition at 50 µM (SARS-CoV-2 nsp3-mac1 [1]; read-out: perc_inhibition_mean, batch_name=ASAP-0000085-001): -0.779%
perc_inhibition_mean (SARS-CoV-2 nsp3-mac1 [2]): -0.779%

COc1ccc(Nc2ncnc3[nH]ncc23)c(OC)c1 [ASAP-0000086]
inhibition at 50 µM (SARS-CoV-2 nsp3-mac1 [1]; read-out: perc_inhibition_mean, batch_name=ASAP-0000086-001): 2.6%
perc_inhibition_mean (SARS-CoV-2 nsp3-mac1 [2]): 2.597%

CCc1nc(CN(C)c2nc(C)nc3[nH]ccc23)cs1 [ASAP-0000087]
inhibition at 50 µM (SARS-CoV-2 nsp3-mac1 [1]; read-out: perc_inhibition_mean, batch_name=ASAP-0000087-001): -6.13%
perc_inhibition_mean (SARS-CoV-2 nsp3-mac1 [2]): -6.131%

FC(F)(F)c1nc(NC[C@H]2CCCO2)c2nc[nH]c2n1 [ASAP-0000088]
inhibition at 50 µM (SARS-CoV-2 nsp3-mac1 [1]; read-out: perc_inhibition_mean, batch_name=ASAP-0000088-001): 2.5%
perc_inhibition_mean (SARS-CoV-2 nsp3-mac1 [2]): 2.501%

COCc1nc(CNc2c(C#N)c(C)nn2C)cs1 [ASAP-0000089]
inhibition at 50 µM (SARS-CoV-2 nsp3-mac1 [1]; read-out: perc_inhibition_mean, batch_name=ASAP-0000089-001): 0.8%
perc_inhibition_mean (SARS-CoV-2 nsp3-mac1 [2]): 0.8%

Cc1[nH]c2ncnc(NC(=O)[C@@H]3CCO[C@@H]3C)c2c1C [ASAP-0000090]
inhibition at 50 µM (SARS-CoV-2 nsp3-mac1 [1]; read-out: perc_inhibition_mean, batch_name=ASAP-0000090-001): 35.1%
perc_inhibition_mean (SARS-CoV-2 nsp3-mac1 [2]): 35.092%

O=C1CC[C@H](COC(=O)c2ncnc3[nH]ccc23)CCN1 [ASAP-0000091]
inhibition at 50 µM (SARS-CoV-2 nsp3-mac1 [1]; read-out: perc_inhibition_mean, batch_name=ASAP-0000091-001): -7.87%
perc_inhibition_mean (SARS-CoV-2 nsp3-mac1 [2]): -7.865%

c1ccc2c(-c3c[nH]c4ncccc34)n[nH]c2c1 [ASAP-0000092]
inhibition at 50 µM (SARS-CoV-2 nsp3-mac1 [1]; read-out: perc_inhibition_mean, batch_name=ASAP-0000092-001): -7.25%
perc_inhibition_mean (SARS-CoV-2 nsp3-mac1 [2]): -7.254%

CCO[C@@H]1C[C@@H](Nc2ncnc3[nH]ccc23)C12CCOCC2 [ASAP-0000093]
inhibition at 50 µM (SARS-CoV-2 nsp3-mac1 [1]; read-out: perc_inhibition_mean, batch_name=ASAP-0000093-001): 2.32%
perc_inhibition_mean (SARS-CoV-2 nsp3-mac1 [2]): 2.316%

O=C1C[C@@]2(CCCN(c3ncnc4[nH]ccc34)C2)CN1 [ASAP-0000094]
inhibition at 50 µM (SARS-CoV-2 nsp3-mac1 [1]; read-out: perc_inhibition_mean, batch_name=ASAP-0000094-001): -2.45%
perc_inhibition_mean (SARS-CoV-2 nsp3-mac1 [2]): -2.451%

Cn1nc(NCc2cc3c(=O)[nH]ccc3o2)c2nccnc21 [ASAP-0000095]
inhibition at 50 µM (SARS-CoV-2 nsp3-mac1 [1]; read-out: perc_inhibition_mean, batch_name=ASAP-0000095-001): -1.01%
perc_inhibition_mean (SARS-CoV-2 nsp3-mac1 [2]): -1.007%

Cn1ncc2c(NCc3ncccc3O)ncnc21 [ASAP-0000096]
inhibition at 50 µM (SARS-CoV-2 nsp3-mac1 [1]; read-out: perc_inhibition_mean, batch_name=ASAP-0000096-001): 3.89%
perc_inhibition_mean (SARS-CoV-2 nsp3-mac1 [2]): 3.893%

O=S(=O)(Nc1ncccn1)c1ccc2oc3ccccc3c2c1 [ASAP-0000097]
inhibition at 50 µM (SARS-CoV-2 nsp3-mac1 [1]; read-out: perc_inhibition_mean, batch_name=ASAP-0000097-001): -3%
perc_inhibition_mean (SARS-CoV-2 nsp3-mac1 [2]): -3.004%

COCc1nc(CNc2ncc3c(n2)COC3)cs1 [ASAP-0000098]
inhibition at 50 µM (SARS-CoV-2 nsp3-mac1 [1]; read-out: perc_inhibition_mean, batch_name=ASAP-0000098-001): -7.14%
perc_inhibition_mean (SARS-CoV-2 nsp3-mac1 [2]): -7.137%

Cn1nc(NC(=O)c2cc(-c3ccco3)[nH]n2)c2nccnc21 [ASAP-0000099]
inhibition at 50 µM (SARS-CoV-2 nsp3-mac1 [1]; read-out: perc_inhibition_mean, batch_name=ASAP-0000099-001): -5.4%
perc_inhibition_mean (SARS-CoV-2 nsp3-mac1 [2]): -5.398%

O=S(=O)(NC[C@H]1CCOC1)c1cn2c(n1)CCCC2 [ASAP-0000100]
inhibition at 50 µM (SARS-CoV-2 nsp3-mac1 [1]; read-out: perc_inhibition_mean, batch_name=ASAP-0000100-001): -3.2%
perc_inhibition_mean (SARS-CoV-2 nsp3-mac1 [2]): -3.203%

Cc1nc2cnccn2c1NC(=O)c1cc(-c2ccco2)[nH]n1 [ASAP-0000101]
inhibition at 50 µM (SARS-CoV-2 nsp3-mac1 [1]; read-out: perc_inhibition_mean, batch_name=ASAP-0000101-001): -3.88%
perc_inhibition_mean (SARS-CoV-2 nsp3-mac1 [2]): -3.884%
